{"source": "paper PMC8282797", "about": "“Strictly regulated agonist-dependent activation of AMPA-R is the key characteristic of TAK-653 for robust synaptic responses and cognitive improvement” (Scientific Reports, 2021)", "key": {"[1]": {"test_system": "rats", "assay": "Seizure and abnormal behavior of LY451646 and AMPA in rats", "type": "in vivo, rat", "conditions": "i.p."}, "[2]": {"test_system": "rats", "assay": "5-choice serial reaction time task (5CSRTT)", "type": "in vivo, rat", "conditions": "0.3 mg/kg, p.o.", "experimental": "The experiment consists of two sessions, training and testing session. The training session was initiated with 7-week-old of male Long-Evans rats, and the testing session was conducted at 12-13 months old. Throughout the experimental period, food was restricted to 80-85% of their free-feeding body weight. The training and testing were conducted using four operant chambers enclosed in sound-attenuating boxes (Med Associates Inc., St Albans, VT). Each chamber contained a curved wall with five contiguous apertures. Food pellets were supplied automatically into a magazine located in the opposite wall of the five contiguous apertures in the chamber, and a photocell beam was used to detect head entries into the magazine. In the training session, a pellet was delivered into the magazine at the start of each session to facilitate initiation of the first trial. After a 5 s-intertrial interval (ITI), a light stimulus was presented in one of the five apertures followed by the 5 s-limited hold without light stimulus. […] Rats were required to nose-poke in the illuminated aperture. […] Incorrect responses (responses in non-illuminated apertures), omissions (failure to respond during the limited hold) and premature responses (responses occurring prior to the presentation of the stimulus) were punished by a 5 s-timeout periods with extinction of the house light and no delivery of food. Accuracy was calculated as the number of correct responses / (number of correct responses + number of incorrect responses) × 100. Each session lasted for 35 min or until 100 trials were completed. Rats were trained until they achieved criterion performance (>75% accuracy and <20 omissions) over 3 consecutive days. In the testing session, the duration of light stimuli on an aperture was set to 0.5 s with a variable ITI schedule (4, 5, 7, or 10 s). Equal numbers of each ITI were randomly presented over 100 trials. TAK-653 at 0.3 mg/kg or vehicle was orally administered 2 h prior to testing in a cross-over design. Data were indicated as the mean ± SEM of number of correct responses, omissions, and premature responses. For sub-population analyses, a median split of the population was undertaken based on their correct response scores under vehicle treatment to ensure no interaction with performance changes across the study (Robinson, 2012)."}, "[3]": {"assay": "Pharmacokinetics in monkeys", "type": "in vivo", "conditions": "monkey, plasma, po, 0.03 mg/kg"}, "[4]": {"test_system": "BDNF mRNA", "assay": "BDNF mRNA expression in mouse hippocampus", "type": "in vivo", "conditions": "3 and 10 mg/kg, p.o.", "experimental": "Male ICR mice at 7 weeks old were treated with orally administered vehicle or TAK-653. For the repeated dose study, TAK-653 (0.3 mg/kg, p.o.) or vehicle was administered for 14 days. AMPA at designated doses was intravenously (i.v.) administered 1 h after oral administration. Three hours after i.v. administration of AMPA, right hippocampi were isolated from the mice by euthanasia and acutely frozen on dry ice. Total RNA from mouse hippocampus was extracted with RNeasy 96 kit (Qiagen, Hilden, Germany). Reverse transcription of total RNA was performed using the High-capacity cDNA Archive kit (Life Technologies, Carlsbad, CA). Real-time quantitative PCR was carried out using an ABI PRISM 7900HT sequence detection system (Life Technologies) using PCR reagents (Nippon Gene Co. Limited, Toyama, Japan). Primers used for BDNF analyses were as follows: BDNF forward primer, 5’-[…]-3’; BDNF reverse primer, 5’-[…]-3’; BDNF TaqMan probe, 5’-FAM- […]-TAMRA-3’. Primers used for Gadd45b analyses were as follows: Gadd45b forward primer, 5’-[…]-3’; Gadd45b reverse primer, 5’-GCGCCAGCCTCTGCAT-3’; Gadd45b TaqMan probe, 5’'-FAM-[…]-MGB-3’. […] Concentrations of GAPDH mRNA were used for internal controls and relative BDNF or Gadd45b mRNA/GAPDH mRNA levels were calculated."}, "[5]": {"test_system": "poly-I:C mouse", "assay": "Social approach-avoidance test in poly-I:C mouse", "type": "in vivo", "conditions": "0.3 mg/kg, p.o., 1 h prior to test", "experimental": "Poly-I:C (5 mg/kg) dissolved in sterile pyrogen-free 0.9% NaCl (control) solution was administered to pregnant female C57BL/6J mice on gestation day 15 (GD15) via the intravenous route at the tail vein with a volume of 5 ml/kg.\nThe apparatus was a three-chamber gray acryl box (53 × 19 × 21.5 cm, outer chamber: 19.3 × 19 × 21.5 cm), and dividing walls were made from clear acryl plates with gates. In the two outer chambers, transparent acryl cylinders with small holes (cylinder: 8.2 cm φ × 20.5 cm, hole: 1.3 cm φ) were placed to avoid direct physical interaction between a target animal and a test animal. Target animals were C57BL/6 J mice of the same age as test animals and no previous contact with them. On the test day, TAK-653 (0.3 mg/kg, p.o.) or vehicle was administered 1 h before the testing session. Each test animal was introduced in the middle chamber of test apparatus for 3 min with the gates being closed by partitions. Then the partitions were removed gently for the test animal to explore all three chambers freely for 5 min. Sniffing index was calculated as the index of sociability using the following equation:\nSniffing index = (Sniffing time to cylinder containing target mouse (s) − Sniffing time to empty cylinder (s))/ (Total sniffing time (s))."}}, "data": [{"smiles": "Cc1onc(O)c1CC(N)C(=O)O", "note": "(stereo not drawn) [AMPA, alpha-amino-3-hydroxy-5-methyl-4-isoxazole-propionic acid]", "values": [{"measurement": "Abnormal behavior", "setting": "[1]; 10 mg/kg", "result": "abnormal behavior such as head turning"}, {"measurement": "Seizure", "setting": "[1]; 30 mg/kg", "result": "induced seizure"}]}, {"smiles": "CC1=CN2CCS(=O)(=O)N=C2C(c2ccc(OC3CCCCC3)cc2)=N1", "note": "[TAK-653, 9-[4-(Cyclohexyloxy)phenyl]-7-methyl-3,4-dihydropyrazino[2,1-c][1,2,4]thiadiazine 2,2-dioxide]", "values": [{"measurement": "Premature responses", "setting": "[2]", "result": "did not affect"}, {"measurement": "5CSRTT performance in the whole population", "setting": "[2]; 2 h prior to the trial", "result": "no significant improvement"}, {"measurement": "Correct responses in the poor performing rats", "setting": "[2]; median split", "result": "significantly increased"}, {"measurement": "Omissions in the poor performing rats", "setting": "[2]; median split", "result": "decreased"}, {"measurement": "Tmax", "setting": "[3]", "result": 8, "unit": "h"}, {"measurement": "half-life", "setting": "[3]", "result": "564 ± 228", "unit": "min"}, {"measurement": "BDNF mRNA levels in hippocampus", "setting": "[4]; AMPA (3.5 mg/kg, i.v.)-treated mice", "result": "significantly increased"}, {"measurement": "BDNF mRNA levels in hippocampus", "setting": "[4]; compound alone", "result": "did not increase"}, {"measurement": "Sniffing index", "setting": "[5]", "result": "significantly improved"}]}]}
